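Step 1: Grow cells in 96-well plates. Step 2: Expose to compound for 48 hours at 5 concentrations. Step 3: Interpolate endpoints linearly; if unreached, use highest concentration. TGI: total growth inhibition.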
How the values were obtained:
Assay in all cases: NCI tumour cell line growth inhibition, 48 h
MALME-3M melanoma = system: MALME-3M melanoma
SK-MEL-5 melanoma = system: SK-MEL-5 melanoma
NCI/ADR-RES ovarian = system: NCI/ADR-RES ovarian
A498 renal = system: A498 renal
MDA-N = system: MDA-N
SNB-75 CNS = system: SNB-75 CNS
OVCAR-5 ovarian = system: OVCAR-5 ovarian
OVCAR-8 ovarian = system: OVCAR-8 ovarian
HL-60(TB) leukemia = system: HL-60(TB) leukemia
SF-295 CNS = system: SF-295 CNS

Compound	TGI (MALME-3M melanoma)	TGI (SK-MEL-5 melanoma)	TGI (NCI/ADR-RES ovarian)	TGI (A498 renal)	TGI (MDA-N)	TGI (SNB-75 CNS)	TGI (OVCAR-5 ovarian)	TGI (OVCAR-8 ovarian)	TGI (HL-60(TB) leukemia)	TGI (SF-295 CNS)
COc1cc(Oc2nc3ccc(C(F)(F)F)cc3nc2-c2ccccc2)cc(OC)c1OC	> 100 µM	44.9 µM	> 100 µM	> 100 µM	> 100 µM	23.5 µM	> 100 µM	> 100 µM	> 100 µM	28.2 µM
C=C(C)[C@@H]1CC[C@]2(C(=O)OC)CC[C@]3(C)[C@H](CC[C@@H]4[C@@]5(C)CC[C@H](O)C(C)(C)[C@@H]5CC[C@]43C)[C@@H]12	53 µM	41.3 µM	51.7 µM	36.7 µM	42.7 µM	59 µM	55.4 µM	51.2 µM	> 100 µM	34.4 µM
COc1cccc(C2c3cc4c(cc3OC3COC(=O)C32)OCO4)c1OC (stereo not given)	> 100 µM	> 100 µM	> 100 µM	> 100 µM	> 100 µM	> 100 µM	> 100 µM	> 100 µM	> 100 µM	> 100 µM
COc1ccc2c3c1O[C@H](c1ccc(O)cc1)[C@H]3[N+](C)(C)CC2	> 100 µM	> 100 µM	> 100 µM	> 100 µM	> 100 µM	> 100 µM	> 100 µM	> 100 µM	96.1 µM	> 100 µM
C[N+](C)(C)c1ncnc2c1ncn2C1CCCO1 (stereo not given)	> 100 µM	> 100 µM	> 100 µM	> 100 µM	> 100 µM	> 100 µM	> 100 µM	> 100 µM	> 100 µM	> 100 µM
COc1ccc(C2=NOC(N)(c3ccc(OC)cc3)C2)cc1 (stereo not given)	> 100 µM	> 100 µM	> 100 µM	> 100 µM	> 100 µM	> 100 µM	> 100 µM	> 100 µM	> 100 µM	> 100 µM
CN(C)CCc1c2c(nc3ccccc13)C(=O)c1cccnc1C2=O	1.79 µM	0.672 µM	1.03 µM	1.72 µM	1.38 µM	2.29 µM	3.44 µM	1.66 µM	0.365 µM	1.03 µM
CCCn1c(=O)c(N2CCN(c3ccccc3)CC2)nc2sc3ccccc3c21	> 100 µM	> 100 µM	> 100 µM	> 100 µM	> 100 µM	> 100 µM	> 100 µM	> 100 µM	> 100 µM	> 100 µM
OC(c1cccnc1Cl)c1nc2ccccc2c2ccnc(Cl)c12 (stereo not given)	78.2 µM	> 100 µM	> 100 µM	17.5 µM	4.49 µM	> 100 µM	> 100 µM	> 100 µM	12.5 µM	9.75 µM
COc1cccc(C(=O)C#Cc2cnc(OC)nc2OC)c1	3.23 µM	3.06 µM	4.83 µM	22.1 µM	3 µM	5.45 µM	8.05 µM	3.88 µM	5.92 µM	31.7 µM
CO/N=C1/c2sccc2[C@H](NC(=O)C(Cc2ccccc2)NC(=O)OC(C)(C)C)[C@@H]1O (stereo not given in full)	> 100 µM	> 100 µM	> 100 µM	> 100 µM	> 100 µM	> 100 µM	> 100 µM	> 100 µM	> 100 µM	> 100 µM
CN(CCCNC(=O)c1cc(-c2ccccc2)nc2ccccc12)CCCNC(=O)c1cc(-c2ccccc2)nc2ccccc12	3.39 µM	3.08 µM	11.1 µM	10.1 µM	3.28 µM	5.02 µM	4.81 µM	5.65 µM	4.7 µM	3.31 µM

— PubChem BioAssay (NCI)
